Patent US6203822A, “Gallium-containing compounds for the treatment of infections caused by intracellular pathogens and pathogens causing chronic pulmonary infection” (priority 1996, dated 2001)

Legend:
[1] = infused in vivo; cited from earlier work
[2] = tested on: infected and uninfected cells; details: read-out: concentration not toxic in vitro
[3] = tested on: M. tuberculosis strain H37Ra in human macrophages; assay: Growth inhibition of M. tuberculosis H37Ra in human monocyte derived macrophages (MDM); type: cell-based
Procedure: Monocyte derived macrophages (MDM) containing strain H37Ra were incubated for 24 h (FIG. 2A), 48 h (FIG. 2B) or 72 h (FIG. 2C) and macrophages containing the virulent strain Erdman were incubated for 24 h (FIG. 2D) or 48 h (FIG. 2E) in gallium nitrate.
The gallium-containing compounds can also be tested for their ability to inhibit intracellular pathogens in tissue culture assays. In general, in these assays, the macrophages are placed in culture and incubated with the intracellular pathogen at an approximate cell to pathogen ratio of preferably at least 1:1 to about 1:5 cells:pathogen. Exemplary culture conditions are provided in the assays detailed in the Examples. For assays assessing M. tuberculosis infection, freshly adherent monocytes, 12 day-old adherent MDMs, or freshly adherent alveolar macrophages are incubated with M. tuberculosis, MAI or other intracellular bacteria at a ratio of about 1:1 to about 1:5 (phagocyte:bacterium). For M. tuberculosis or MAI, the bacteria are incubated with the phagocyte for 2 hr at 37° C. in RPMI/HEPES media with 2.5% serum or human serum albumin (serum-free). The cells are washed to remove non-adherent bacteria and monolayers are replated with RPMI containing 1% autologous serum (to maintain phagocyte viability but not to sustain extracellular growth of bacteria). Gallium-containing compounds, such as gallium nitrate, with, or without, other agents such as antibiotics, cytokines etc., are added about 24 hr. later and mycobacterial growth in cell lysates is then assessed over the next several days either by the radiometric BACTEC system or by colony-forming units on agarose plates. In each experiment, growth is assessed relative to control monolayers where no drug has been added.
Mononuclear phagocytes from healthy adult volunteers who were tuberculin skin test negative and had no history of mycobacterial infection were isolated and cultured in Teflon wells according to the methods of Schlesinger, et al. (J. Immunol. 150:2920-2930, 1993). […]

[4] = tested on: P. aeruginosa strain PA01; assay: Growth inhibition of P. aeruginosa in iron-supplemented succinate medium; type: cell-based; details: for A600 (growth): 1 μM ferric chloride, 7 h, control A600=0.297
Procedure: In another embodiment of this invention, P. aeruginosa, the principle cause of chronic lung infections in patients with cystic fibrosis, was also determined to be susceptible to gallium-containing compounds. The PA01 strain of P. aeruginosa only grew in an iron-restricted succinate based broth medium (Cox, CD. Infect. Immun. 52:263-270, 1986) that included exogenous Ferric chloride or iron chelated to either of the siderophores pyochelin or pyoverdin at concentrations of 1 μM or greater. The addition of gallium nitrate to the iron supplemented medium inhibited P. aeruginosa growth (see Example 15). Growth was measure by monitoring the culture medium absorbance at 600 nm.
P. aeruginosa strain PA01 was suspended in succinate-based medium (Cox, C. D., Infect. Immun. 52:262-270, 1986) to an optical density of approximately 0.040 at 600 nm in the absence (negative control) or presence of 1 μM ferric chloride (positive growth control). To some aliquots of both positive and negative control conditions, gallium nitrate was added at varying concentrations. The bacterial suspensions were placed at 37° C. for 7 h and growth was determined by measuring absorbance at 600 nm. […] With the inclusion of ferric chloride the concentration of organisms increased nearly eight fold A600=0.297).

[5] = tested on: macrophage monolayers (MDMs); assay: Gallium toxicity in uninfected MDM monolayers; type: cell-based, human; details: naphthol blue stained nuclei count, read-out: gallium concentration up to which no immediate difference in monolayer density
Procedure: To test the potential toxicity of gallium nitrate on the standard macrophage monolayers (MDMs) used in the assays described in this invention, uninfected MDM monolayers were incubated with various concentrations of gallium nitrate in the range used in the studies described in Examples 2 and 3.
There was no immediate difference in monolayer density between MDM monolayers with and without gallium nitrate treatment up to a gallium concentration of 2 mM. Results were based on counting napthol blue macrophage stained nuclei from the monolayer. These numbers directly correlate with the number of cells present. In most cases the integrity of the MDM monolayer in the presence of gallium was maintained for up to 37 days, equivalent to untreated, uninfected control cultures.

[6] = tested on: Macrophages (MDMs) infected with M. tuberculosis; assay: Monolayer density of macrophages (MDMs) infected with M. tuberculosis and treated with gallium nitrate; type: cell-based, human
Procedure: Macrophages were infected with M. tuberculosis at a ratio of 1:5 (MDMs:bacteria) and treated with 500 μM or 1 mM gallium nitrate. Cell density was assessed over time. The results of the experiments comparing the monolayer integrity of untreated vs. gallium nitrate treated cultures were as follows: […]

O=[N+]([O-])[O-].O=[N+]([O-])[O-].O=[N+]([O-])[O-].[Ga+3] [gallium nitrate]
binding to serum transferrin on infusion [1]: most of the gallium binds rapidly to serum transferrin
MNTC [2]: 1 mM
inhibition of growth versus 24 h ([3]; 48 and 72 h): More marked inhibition of growth
inhibition of growth ([3]; 24 h): Inhibition of growth was observed
inhibition of growth ([3]; about 1 to about 1000 μM): dose-dependent inhibition of growth
growth inhibition in words ([4]; 1 μM gallium nitrate): Slight inhibition
A600 (growth) ([4]; 1 μM gallium nitrate): 0.270
decrease of growth ([4]; 10 μM gallium nitrate): more than 50%
A600 (growth) ([4]; 10 μM gallium nitrate): 0.130
P. aeruginosa growth inhibition ([4]; 100 μM and 10 μM gallium nitrate, ferric chloride supplemented): Significant inhibition
growth inhibition in words ([4]; 100 μM gallium nitrate): completely inhibited
A600 (growth) ([4]; 100 μM gallium nitrate): 0.043
MNTC [5]: ≥ 2 mM
Monolayer Integrity ([6]; Experiment #2, Day 1, 24 hr postinfection, 500 μM or 1 mM): No difference between Ga-treated and control
Monolayer Integrity ([6]; Experiment #2, Day 3, 4 days postinfection, 500 μM or 1 mM): No difference between Ga-treated and control
Monolayer Integrity: times the number of cells in Ga-treated cultures ([6]; Experiment #2, Day 6, 7 days postinfection, 500 μM or 1 mM): 2-4 times
Monolayer Integrity ([6]; Experiment No. 1, Day 1, 24 h postinfection, 500 μM or 1 mM): No difference
Monolayer Integrity: more cells in Ga-treated cultures ([6]; Experiment No. 1, Day 8, 9 days postinfection, 500 μM or 1 mM): 25-50%
Monolayer Integrity: times as many cells in Ga-treated cultures ([6]; Experiment No. 1, Day 11, 12 days postinfection, 500 μM or 1 mM): 4-5 times
Monolayer Integrity: times as many cells in Ga-treated cultures ([6]; Experiment No. 1, Day 29, 30 days postinfection, 500 μM or 1 mM): 4-5 times
Monolayer Integrity ([6]; Experiment No. 1, Day 33, 34 days postinfection, control wells had no cells left): No difference between monolayers treated
